Measurements reported in ChEMBL document CHEMBL1151151, “Anti-AIDS agents, 2: Inhibitory effects of tannins on HIV reverse transcriptase and HIV replication in H9 lymphocyte cells” (J Nat Prod, 1990).
Activity calls are given as the source filed them. No cut-off for these calls is given here.

Experiments:
[1] = system: Human immunodeficiency virus 1; assay: Antiviral activity against HIV1 3B infected in human H9 cells assessed as inhibition of viral replication after 3 days by p24 antigen capture assay; assay type: functional; set-up: concentration or dose not given beside the values
[2] = system: Human immunodeficiency virus 1; assay: Antiviral activity against HIV1 3B infected in human H9 cells assessed as inhibition of viral replication at 21 uM treated during viral infection step by p24 antigen capture assay; assay type: functional, organism-based
[3] = system: Human immunodeficiency virus 1; assay: Antiviral activity against HIV1 3B infected in human H9 cells assessed as inhibition of viral replication at 18 uM treated after viral infection by p24 antigen capture assay; assay type: functional, organism-based
[4] = system: Human immunodeficiency virus 1; assay: Antiviral activity against HIV1 3B infected in human H9 cells assessed as inhibition of viral replication at 21 uM pretreated before viral infection by p24 antigen capture assay; assay type: functional, organism-based
[5] = system: Human immunodeficiency virus 1; assay: Antiviral activity against HIV1 3B infected in human H9 cells assessed as inhibition of viral replication at 21 uM treated after viral infection by p24 antigen capture assay; assay type: functional, organism-based
[6] = system: Human immunodeficiency virus 1; assay: Antiviral activity against HIV1 3B infected in human H9 cells assessed as inhibition of viral replication at 9.2 uM treated during viral infection step by p24 antigen capture assay; assay type: functional, organism-based
[7] = system: Human immunodeficiency virus 1; assay: Antiviral activity against HIV1 3B infected in human H9 cells assessed as inhibition of viral replication at 9.2 uM pretreated before viral infection by p24 antigen capture assay; assay type: functional, organism-based
[8] = system: Human immunodeficiency virus 1; assay: Antiviral activity against HIV1 3B infected in human H9 cells assessed as inhibition of viral replication at 10 uM pretreated before viral infection by p24 antigen capture assay; assay type: functional, organism-based
[9] = system: Human immunodeficiency virus 1; assay: Antiviral activity against HIV1 3B infected in human H9 cells assessed as inhibition of viral replication at 10 uM treated during viral infection step by p24 antigen capture assay; assay type: functional, organism-based
[10] = molecular target: Human immunodeficiency virus type 1 reverse transcriptase (Human immunodeficiency virus 1) (UniProt Q72547); assay: Inhibition of HIV reverse transcriptase
[11] = molecular target: Human immunodeficiency virus type 1 reverse transcriptase (Human immunodeficiency virus 1) (UniProt Q72547); assay: Inhibition of polymerase activity of HIV reverse transcriptase assessed as residual enzyme activity at 46 uM in presence of 75 ug/ml activated dNA and 25 uM dTTP
[12] = molecular target: Human immunodeficiency virus type 1 reverse transcriptase (Human immunodeficiency virus 1) (UniProt Q72547); assay: Inhibition of polymerase activity of HIV reverse transcriptase assessed as residual enzyme activity at 46 uM in presence of 75 ug/ml activated dNA and 5 uM dTTP
[13] = molecular target: Human immunodeficiency virus type 1 reverse transcriptase (Human immunodeficiency virus 1) (UniProt Q72547); assay: Inhibition of polymerase activity of HIV reverse transcriptase assessed as residual enzyme activity at 46 uM in presence of 375 ug/ml activated dNA and 5 uM dTTP
[14] = system: Human immunodeficiency virus 1; assay: Antiviral activity against HIV1 3B infected in human H9 cells assessed as inhibition of viral replication at 18 uM treated during viral infection step by p24 antigen capture assay; assay type: functional, organism-based
[15] = system: Human immunodeficiency virus 1; assay: Antiviral activity against HIV1 3B infected in human H9 cells assessed as inhibition of viral replication at 18 uM pretreated before viral infection by p24 antigen capture assay; assay type: functional, organism-based
[16] = molecular target: Human immunodeficiency virus type 1 reverse transcriptase (Human immunodeficiency virus 1) (UniProt Q72547); assay: Inhibition of polymerase activity of HIV reverse transcriptase assessed as residual enzyme activity at 64 uM in presence of 375 ug/ml activated dNA and 5 uM dTTP
[17] = molecular target: Human immunodeficiency virus type 1 reverse transcriptase (Human immunodeficiency virus 1) (UniProt Q72547); assay: Inhibition of polymerase activity of HIV reverse transcriptase assessed as residual enzyme activity at 64 uM in presence of 75 ug/ml activated dNA and 5 uM dTTP
[18] = Growth inhibition of human H9 cells at 30 uM; assay type: cell-based; conditions: read-out: GI
[19] = system: Human immunodeficiency virus 1; assay: Antiviral activity against HIV1 3B infected in human H9 cells assessed as inhibition of viral replication at 13 uM pretreated before viral infection by p24 antigen capture assay; assay type: functional, organism-based
[20] = molecular target: Human immunodeficiency virus type 1 reverse transcriptase (Human immunodeficiency virus 1) (UniProt Q72547); assay: Inhibition of HIV reverse transcriptase at 12.5 uM; conditions: TDE = time-dependent effect
[21] = molecular target: Human immunodeficiency virus type 1 reverse transcriptase (Human immunodeficiency virus 1) (UniProt Q72547); assay: Inhibition of polymerase activity of HIV reverse transcriptase assessed as residual enzyme activity at 64 uM in presence of 75 ug/ml activated dNA and 25 uM dTTP
[22] = system: Human immunodeficiency virus 1; assay: Antiviral activity against HIV1 3B infected in human H9 cells assessed as inhibition of viral replication at 13 uM treated during viral infection step by p24 antigen capture assay; assay type: functional, organism-based

Structure (SMILES)	inhibition (INH) [1] [%]	Activity [3]	Activity [5]	ID50 [10] [µM]	further results
O=C(O)C1=C[C@@H](OC(=O)c2cc(O)c(O)c(O)c2)[C@@H](OC(=O)c2cc(O)c(O)c(O)c2)[C@H](OC(=O)c2cc(O)c(O)c(O)c2)C1	>50	–	–	–	–
O=C(O)C1=C[C@@H](OC(=O)c2cc(O)c(O)c(O)c2)[C@@H](O)[C@H](OC(=O)c2cc(O)c(O)c(O)c2)C1	>50	Active	Active	–	Activity [2]: Active; Activity [4]: Active
O=C1O[C@@H]2[C@@H](OC(=O)c3cc(O)c(O)c(O)c3-c3c1cc(O)c(O)c3O)[C@H](O)O[C@@H]1COC(=O)c3cc(O)c(O)c(O)c3-c3c(O)c(O)c4oc(=O)c5c(c(O)c(O)c6oc(=O)c3c4c65)-c3c(cc(O)c(O)c3O)C(=O)O[C@@H]21 [PUNICALAGIN]	>50	Active	Active	–	Activity [6]: Active; Activity [7]: Active
O=C(O)C[C@H]1C(=O)O[C@H]2[C@H](OC(=O)c3cc(O)c(O)c(O)c3)[C@@H](OC(=O)c3cc(O)c(O)c4c3[C@H]1[C@H](O)C(=O)O4)[C@H](OC(=O)c1cc(O)c(O)c(O)c1)O[C@@H]2COC(=O)c1cc(O)c(O)c(O)c1 [CHEBULINIC ACID]	>50	Active	Active	–	Activity [8]: Active; Activity [9]: Active
O=C(O[C@@H]1O[C@@H]2COC(=O)c3cc(O)c(O)c(O)c3-c3c(cc(O)c(O)c3O)C(=O)O[C@H]2[C@@H]2OC(=O)c3cc(O)c(O)c(O)c3-c3c(cc(O)c(O)c3O)C(=O)O[C@@H]12)c1cc(O)c(O)c(Oc2c(O)c(O)c(O)c3c2C(=O)O[C@H]2[C@@H]4OC(=O)c5cc(O)c(O)c(O)c5-c5c(cc(O)c(O)c5O)C(=O)O[C@H]4[C@@H](OC(=O)c4cc(O)c(O)c(Oc5c(O)c(O)c(O)c6c5C(=O)O[C@H]5[C@@H]7OC(=O)c8cc(O)c(O)c(O)c8-c8c(cc(O)c(O)c8O)C(=O)O[C@H]7[C@H](OC(=O)c7cc(O)c(O)c(Oc8c(O)c(O)c(O)c9c8C(=O)O[C@H]8[C@@H]%10OC(=O)c%11cc(O)c(O)c(O)c%11-c%11c(cc(O)c(O)c%11O)C(=O)O[C@H]%10[C@@H](OC(=O)c%10cc(O)c(O)c(O)c%10)O[C@@H]8COC(=O)c8cc(O)c(O)c(O)c8-9)c7)O[C@@H]5COC(=O)c5cc(O)c(O)c(O)c5-6)c4)O[C@@H]2COC(=O)c2cc(O)c(O)c(O)c2-3)c1	–	–	–	20	–
O=C1O[C@H]([C@@H]2OC(=O)c3cc(O)c(O)c(O)c3-c3c(O)c(O)c4oc(=O)c5c(c(O)c(O)c6oc(=O)c3c4c65)-c3c(cc(O)c(O)c3O)C(=O)OC[C@H]2O)[C@@H]2OC(=O)c3c(c(O)c(O)c(O)c3[C@H]2O)-c2c1cc(O)c(O)c2O [PUNICACORTEIN C]	>50	Active	Active	5	Activity [6]: Active; Activity [7]: Active; Activity [11]: 37.6%; Activity [12]: 21.5%; Activity [13]: 46.2%
O=C(O)C[C@@H]1C(=O)O[C@H]2[C@@H]3OC(=O)c4cc(O)c(O)c(O)c4-c4c(cc(O)c(O)c4O)C(=O)OC[C@H]2O[C@@H](OC(=O)c2cc(O)c(O)c(O)c2)[C@@H]3OC(=O)c2cc(O)c(O)c3c2[C@H]1[C@H](O)C(=O)O3 [CHEBULAGIC ACID]	>50	Active	Active	–	Activity [8]: inactive; Activity [9]: Active
O=C(O[C@@H]1[C@H](O)C[C@@](OC(=O)c2cc(O)c(O)c(O)c2)(C(=O)O)C[C@H]1OC(=O)c1cc(O)c(O)c(O)c1)c1cc(O)c(O)c(O)c1	>50	Active	Active	–	Activity [14]: Active; Activity [15]: Active
O=C1OC[C@H]2O[C@@H](O)[C@H](O)[C@@H](O)[C@@H]2OC(=O)c2cc(O)c(O)c(O)c2-c2c(O)c(O)c3oc(=O)c4c(c(O)c(O)c5oc(=O)c2c3c54)-c2c1cc(O)c(O)c2O [PUNICALIN]	>50	Active	Active	8	Activity [16]: 45.3%; Activity [17]: 11.4%; inhibition at 30 µM [18]: 15%; Activity [19]: inactive; Activity [20]: tde; Activity [21]: 34.4%; Activity [10]: Dose-dependent effect; Activity [22]: Active
